For ten cell lines, relative viability results are on record in the supplement of paper PMC10307832.

Common to all, as to experiment: relative viability (nuclei count vs DMSO), 5 days (fraction); higher = more cells survive
Compound in the test “BI-2536 + Foretinib”: CC[C@@H]1C(=O)N(C)c2cnc(Nc3ccc(C(=O)NC4CCN(C)CC4)cc3OC)nc2N1C1CCCC1 [BI-2536] + COc1cc2c(Oc3ccc(NC(=O)C4(C(=O)Nc5ccc(F)cc5)CC4)cc3F)ccnc2cc1OCCCN1CCOCC1 [Foretinib] (partner 0.25 µM)
In outline: (§1)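 Each reported value is a median over duplicate plates. It expresses relative viability: treated-well nuclei count divided by vehicle-well nuclei count. Lung cancer cell lines in 1536-well plates were dosed by pin tool a day after seeding, alone with one drug or with a fixed anchor-drug dose plus five library-drug doses (not always all listed) in √10 steps, and nuclei were counted after 5 days.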

Compound in the test “BI-2536 + Crizotinib”: CC[C@@H]1C(=O)N(C)c2cnc(Nc3ccc(C(=O)NC4CCN(C)CC4)cc3OC)nc2N1C1CCCC1 [BI-2536] + C[C@@H](Oc1cc(-c2cnn(C3CCNCC3)c2)cnc1N)c1c(Cl)ccc(F)c1Cl [Crizotinib] (partner 1 µM)
In a few lines:
as §1

Compound in the test “NPK76-II-72-1 + Olaparib”: CC1CC(=O)N(C2=CN=C(N=C2N1C3CCCC3)NC4=C(C=C(C=C4)C(=O)NC5CCN(CC5)C)OC)C [NPK76-II-72-1] + O=C(c1cc(Cc2n[nH]c(=O)c3ccccc23)ccc1F)N1CCN(C(=O)C2CC2)CC1 [Olaparib] (partner 8 µM)
In outline:
as §1

Compound in the test “NPK76-II-72-1 + AZD7762”: CC1CC(=O)N(C2=CN=C(N=C2N1C3CCCC3)NC4=C(C=C(C=C4)C(=O)NC5CCN(CC5)C)OC)C [NPK76-II-72-1] + NC(=O)Nc1cc(-c2cccc(F)c2)sc1C(=O)N[C@H]1CCCNC1 [AZD7762] (partner 0.2 µM)
In outline:
as §1

NCI-H520: the relative viability was determined as 0.678 with BI-2536 + Foretinib (first compound 0.01 µM); 0.632 with BI-2536 + Foretinib (first compound 0.03162 µM); 0.242 with BI-2536 + Foretinib (first compound 0.1 µM); 0.184 with BI-2536 + Foretinib (first compound 0.3162 µM); 0.218 with BI-2536 + Foretinib (first compound 1 µM); 0.764 with BI-2536 + Crizotinib (first compound 0.01 µM). Also, the relative viability in the test with BI-2536 + Crizotinib (first compound 0.03162 µM) was 0.323; with BI-2536 + Crizotinib (first compound 0.1 µM) it was 0.202; with BI-2536 + Crizotinib (first compound 0.3162 µM), 0.184; with BI-2536 + Crizotinib (first compound 1 µM), 0.117; with NPK76-II-72-1 + Olaparib (first compound 0.01 µM) it was 0.294; in the test with NPK76-II-72-1 + Olaparib (first compound 0.03162 µM), 0.351. Moreover, the values for the relative viability in the test with NPK76-II-72-1 + Olaparib (first compound 0.1 µM), in the test with NPK76-II-72-1 + Olaparib (first compound 0.3162 µM) and with NPK76-II-72-1 + Olaparib (first compound 1 µM) were 0.268, 0.385 and 0.343, respectively.
For the cell line NCI-H522, the relative viability with NPK76-II-72-1 + AZD7762 (first compound 0.01 µM) came out at 0.945; with NPK76-II-72-1 + AZD7762 (first compound 0.03162 µM), 0.826; in the test with NPK76-II-72-1 + AZD7762 (first compound 0.1 µM) it was 0.786; with NPK76-II-72-1 + AZD7762 (first compound 1 µM) it was 0.809; with NPK76-II-72-1 + Olaparib (first compound 0.01 µM) it was 0.586; with NPK76-II-72-1 + Olaparib (first compound 0.03162 µM), 0.661. The relative viability was 0.703 in the test with NPK76-II-72-1 + Olaparib (first compound 0.1 µM) and 0.607 with NPK76-II-72-1 + Olaparib (first compound 1 µM).
Take NCI-H661: the relative viability in the test with BI-2536 + Foretinib (first compound 0.01 µM) is 1.13; with BI-2536 + Foretinib (first compound 0.03162 µM), 0.889; with BI-2536 + Foretinib (first compound 0.1 µM), 0.388; in the test with BI-2536 + Foretinib (first compound 0.3162 µM) it was 0.296; in the test with BI-2536 + Foretinib (first compound 1 µM), 0.309; with BI-2536 + Crizotinib (first compound 0.01 µM), 0.97. The relative viability in the test with BI-2536 + Crizotinib (first compound 0.03162 µM) was 0.928; with BI-2536 + Crizotinib (first compound 0.1 µM), 0.854; in the test with BI-2536 + Crizotinib (first compound 0.3162 µM), 0.381; with BI-2536 + Crizotinib (first compound 1 µM), 0.262; with NPK76-II-72-1 + Olaparib (first compound 0.01 µM), 0.697; with NPK76-II-72-1 + Olaparib (first compound 0.03162 µM), 0.705. Besides, the relative viability was determined as 0.778 in the test with NPK76-II-72-1 + Olaparib (first compound 0.1 µM), 0.666 with NPK76-II-72-1 + Olaparib (first compound 0.3162 µM) and 0.83 with NPK76-II-72-1 + Olaparib (first compound 1 µM).
In the case of NCI-H1299, the relative viability with BI-2536 + Foretinib (first compound 0.01 µM) is 1.15; with BI-2536 + Foretinib (first compound 0.03162 µM), 1.09; in the test with BI-2536 + Foretinib (first compound 0.1 µM) it was 0.773; with BI-2536 + Foretinib (first compound 0.3162 µM), 0.308; in the test with BI-2536 + Foretinib (first compound 1 µM), 0.242; with BI-2536 + Crizotinib (first compound 0.01 µM) it was 0.946. Further, the relative viability stood at 0.808 in the test with BI-2536 + Crizotinib (first compound 0.03162 µM); 0.663 with BI-2536 + Crizotinib (first compound 0.1 µM); 0.266 with BI-2536 + Crizotinib (first compound 0.3162 µM); 0.224 in the test with BI-2536 + Crizotinib (first compound 1 µM); 0.946 in the test with NPK76-II-72-1 + Olaparib (first compound 0.01 µM); 1.01 with NPK76-II-72-1 + Olaparib (first compound 0.03162 µM). For the same cell line, the relative viability was 0.953 in the test with NPK76-II-72-1 + Olaparib (first compound 0.1 µM), 0.95 with NPK76-II-72-1 + Olaparib (first compound 0.3162 µM) and 0.947 with NPK76-II-72-1 + Olaparib (first compound 1 µM).
On to NCI-H1395, for which the relative viability in the test with BI-2536 + Foretinib (first compound 0.01 µM) came to 0.911; with BI-2536 + Foretinib (first compound 0.03162 µM), 1.1; in the test with BI-2536 + Foretinib (first compound 0.1 µM), 0.691; in the test with BI-2536 + Foretinib (first compound 0.3162 µM) it was 0.339; in the test with BI-2536 + Foretinib (first compound 1 µM), 0.327; with NPK76-II-72-1 + AZD7762 (first compound 0.01 µM), 0.388. The relative viability was found to be 0.341 in the test with NPK76-II-72-1 + AZD7762 (first compound 0.03162 µM); 0.4 with NPK76-II-72-1 + AZD7762 (first compound 0.1 µM); 0.396 with NPK76-II-72-1 + AZD7762 (first compound 0.3162 µM); 0.387 in the test with NPK76-II-72-1 + AZD7762 (first compound 1 µM); 0.459 with NPK76-II-72-1 + Olaparib (first compound 0.01 µM); 0.45 with NPK76-II-72-1 + Olaparib (first compound 0.03162 µM). For the same cell line, the relative viability with NPK76-II-72-1 + Olaparib (first compound 0.1 µM) is 0.493; in the test with NPK76-II-72-1 + Olaparib (first compound 0.3162 µM), 0.477; with NPK76-II-72-1 + Olaparib (first compound 1 µM), 0.466.
Regarding NCI-H1563, the relative viability with BI-2536 + Foretinib (first compound 0.01 µM) was 0.905; in the test with BI-2536 + Foretinib (first compound 0.03162 µM), 1.06; with BI-2536 + Foretinib (first compound 0.1 µM) it was 0.923; in the test with BI-2536 + Foretinib (first compound 0.3162 µM) it was 0.67; with BI-2536 + Foretinib (first compound 1 µM), 0.552; with BI-2536 + Crizotinib (first compound 0.01 µM) it was 0.902. Moreover, the relative viability was 0.817 with BI-2536 + Crizotinib (first compound 0.03162 µM), 0.822 with BI-2536 + Crizotinib (first compound 0.1 µM), 0.621 with BI-2536 + Crizotinib (first compound 0.3162 µM) and 0.561 in the test with BI-2536 + Crizotinib (first compound 1 µM).
As to NCI-H1623, the relative viability in the test with BI-2536 + Foretinib (first compound 0.01 µM) turned out to be 0.912; in the test with BI-2536 + Foretinib (first compound 0.03162 µM), 0.864; in the test with BI-2536 + Foretinib (first compound 0.1 µM) it was 0.83; with BI-2536 + Foretinib (first compound 0.3162 µM), 0.345; in the test with BI-2536 + Foretinib (first compound 1 µM), 0.321.
NCI-H1648: the relative viability with NPK76-II-72-1 + AZD7762 (first compound 0.01 µM) is 0.639; with NPK76-II-72-1 + AZD7762 (first compound 0.03162 µM) it was 0.563; in the test with NPK76-II-72-1 + AZD7762 (first compound 0.1 µM) it was 0.57; with NPK76-II-72-1 + AZD7762 (first compound 0.3162 µM), 0.66; with NPK76-II-72-1 + AZD7762 (first compound 1 µM), 0.533; in the test with NPK76-II-72-1 + Olaparib (first compound 0.01 µM) it was 0.535. In addition, the relative viability with NPK76-II-72-1 + Olaparib (first compound 0.03162 µM) was 0.891; with NPK76-II-72-1 + Olaparib (first compound 0.1 µM) it was 0.567; in the test with NPK76-II-72-1 + Olaparib (first compound 0.3162 µM) it was 0.889; with NPK76-II-72-1 + Olaparib (first compound 1 µM), 1.05.
Regarding NCI-H1650, the relative viability worked out at 1.16 in the test with BI-2536 + Foretinib (first compound 0.01 µM); 1.14 with BI-2536 + Foretinib (first compound 0.03162 µM); 0.484 in the test with BI-2536 + Foretinib (first compound 0.1 µM); 0.135 with BI-2536 + Foretinib (first compound 0.3162 µM); 0.115 with BI-2536 + Foretinib (first compound 1 µM); 0.948 with BI-2536 + Crizotinib (first compound 0.01 µM). The relative viability with BI-2536 + Crizotinib (first compound 0.03162 µM) was determined as 0.742; in the test with BI-2536 + Crizotinib (first compound 0.1 µM), 0.208; with BI-2536 + Crizotinib (first compound 0.3162 µM) it was 0.143; with BI-2536 + Crizotinib (first compound 1 µM), 0.11; with NPK76-II-72-1 + Olaparib (first compound 0.01 µM) it was 0.661; with NPK76-II-72-1 + Olaparib (first compound 0.03162 µM), 0.751. The relative viability in the test with NPK76-II-72-1 + Olaparib (first compound 0.1 µM) amounted to 0.721; with NPK76-II-72-1 + Olaparib (first compound 0.3162 µM), 0.82; in the test with NPK76-II-72-1 + Olaparib (first compound 1 µM), 0.784.
Consider NCI-H1792, for which the relative viability with NPK76-II-72-1 + AZD7762 (first compound 0.03162 µM) amounted to 0.702; in the test with NPK76-II-72-1 + AZD7762 (first compound 0.1 µM), 0.848; in the test with NPK76-II-72-1 + AZD7762 (first compound 0.3162 µM) it was 0.686; with NPK76-II-72-1 + AZD7762 (first compound 1 µM) it was 0.732; with BI-2536 + Crizotinib (first compound 0.01 µM), 1.04; with BI-2536 + Crizotinib (first compound 0.03162 µM) it was 0.815. The relative viability with BI-2536 + Crizotinib (first compound 0.1 µM) turned out to be 1.01; with BI-2536 + Crizotinib (first compound 0.3162 µM), 0.417; with BI-2536 + Crizotinib (first compound 1 µM), 0.17; with NPK76-II-72-1 + Olaparib (first compound 0.03162 µM) it was 0.362; with NPK76-II-72-1 + Olaparib (first compound 0.1 µM), 0.357; with NPK76-II-72-1 + Olaparib (first compound 0.3162 µM) it was 0.419. In the test with NPK76-II-72-1 + Olaparib (first compound 1 µM), the relative viability was found to be 0.742.
